In paper PMC2360155, “Novel retinoic acid metabolism blocking agents have potent inhibitory activities on human breast cancer cells and tumour growth” (British Journal of Cancer, 2007):

Tests used:
[1] = target: T1, RXRα (Homo sapiens, UniProt P19793); test: Retinoid receptor competition binding assay, RXRα; conditions: competition with 1.0 nM [3H]-9-cis-RA
T1 construct: The full-length cDNA clones for RARα, RARβ, RARγ and RXRα were cloned into the prokaryotic expression vector pET29; S-Tag; made in house; host or cells: prokaryotic host (pET29 vector)
T1 sequence (P19793 1-462): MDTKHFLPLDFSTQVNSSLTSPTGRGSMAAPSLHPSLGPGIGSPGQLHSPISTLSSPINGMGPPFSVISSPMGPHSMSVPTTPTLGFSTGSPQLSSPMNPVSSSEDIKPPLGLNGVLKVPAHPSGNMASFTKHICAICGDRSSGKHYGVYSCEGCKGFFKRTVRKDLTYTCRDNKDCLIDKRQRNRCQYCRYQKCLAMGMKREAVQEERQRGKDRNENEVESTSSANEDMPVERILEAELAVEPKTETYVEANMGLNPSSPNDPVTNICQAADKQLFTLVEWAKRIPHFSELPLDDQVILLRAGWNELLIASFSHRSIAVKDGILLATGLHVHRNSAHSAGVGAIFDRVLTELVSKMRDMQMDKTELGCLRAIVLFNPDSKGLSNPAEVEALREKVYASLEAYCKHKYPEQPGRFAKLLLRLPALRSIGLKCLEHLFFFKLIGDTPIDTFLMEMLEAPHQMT

[2] = tested on: MCF-7 tumour xenografts; test: In vivo antitumour study, ATRA and VN/14-1 alone or in combination, MCF-7 tumour xenografts; set-up: species or system ovariectomised female athymic nude mice; conditions: single agents: ATRA 33.0, VN/14-1 16.5 μmol kg^−1 day^−1; 36 days
Procedure: The second experiment was similar to that described above, but consisted of only four groups. When the tumour volume has reached about 100 mm^3, the mice were randomly divided in to four groups of five mice each. […] These treatments continued for 36 days and the tumours were measured and processed as described above.
Procedure was similar to that described in Figure 8A.

[3] = tested on: caspase-9; test: Western immunoblotting for caspase-9 in T47D cells; format: cell-based, human; conditions: 6 days
Procedure: At the end of the treatment, cells were scrapped and collected by washing with ice-cold PBS in a centrifuge tube. Cells were centrifuged at 2500 r.p.m. for 10 min, the pellet was again washed with ice-cold PBS and centrifuged. The cell pellet was then suspended in chilled cell lysis buffer (0.1 M Tris–HCl, 0.5% Triton X-100, protease inhibitor cocktail) and sonicated on ice for 10–15 s. The homogenate was kept on ice for 30 min and then centrifuged at 13 000 r.p.m. for 30 min. The supernatant was used as cell lysate. The cell lysates were stored at −80°C. Protein concentration of the cell lysates was determined using Bio-Rad protein assay reagents.
Protein lysates from MCF-7 and T47D cells were subjected to sodium dodecyl sulphate–polyacrylamide gel electrophoresis (SDS–PAGE) and immunoblotted for different proteins. Equal amounts of protein (25–50 μg) were subjected to SDS–PAGE at 60 V for 3 h using the mini PROTEAN3 electrophoresis module assembly (Bio-Rad, Hercules, CA, USA), and transferred to nitrocellulose membranes (Hybond ECL, Amersham). Immunodetections were carried out using antibodies against CK 8/18 (1° antibody – 1 : 8000 in 10% milk PBST), E-cadherin (1° antibody – 1 : 1000 in 5% milk in TBST) and ER-α (1° antibody – 1 : 200 in 5% milk PBST) purchased from Santa Cruz Biotechnology Inc. Antibodies against PARP (1° antibody – 1 : 1000 in 5% milk TBST), cyclin- D1 (1° antibody – 1 : 2000 in 10% milk TBST), caspase-9 (1° antibody – 1 : 1000 in 10% milk TBST) and BAD (1° antibody – 1 : 1000 in 5% BSA TBST) were obtained from Cell Signaling Technology. Antibody for β-actin was obtained from Calbiochem (CA, USA). Secondary anti-mouse IgG HRP conjugate antibody was purchased from Calbiochem and Bio-Rad. Secondary anti-rabbit IgG HRP conjugate antibody was bought from Bio-Rad as well as from Kirkegaard and Perry laboratories (Gaithersburg, MD, USA). Immunoreactive bands were visualised using the enhanced chemiluminescence detection reagents and analysis system (Amersham Bioscences) according to the manufacturer's instructions and quantified by densitometry using ImageQuant software version 5.
Figure 7 (A) Western immunoblotting of whole-cell lysates of treated MCF-7 and T47D cells for the expression of Bad. […] Numbers below the blot show fold increase in expression of the protein as analysed by ImageQuant densitometry analysis. Membranes were stripped and probed for β-actin to verify equal protein loading. Primary antibody (Cell Signaling Technology) 1 : 1000 in 5% BSA TBST overnight at 4°C and secondary antibody (anti-rabbit) 1 : 2000 for 1 h at RT. This experiment was repeated twice with similar results. […] Numbers below the blot show fold increase in the active form of caspase-9 as compared with control. Membrane was stripped and probed for β-actin to verify equal amount of protein loading. The primary and secondary antibodies and their dilutions are as follows: primary antibody (Cell Signaling Technology), 1 : 1000 in 10% milk TBST overnight at 4°C and secondary antibody (anti-rabbit) 1 : 2000 in 10% milk TBST for 1 h at RT. Densitometry analysis was performed by ImageQuant software. This experiment was repeated twice with similar results. (C) Western immunoblotting of whole-cell lysates of treated MCF-7 and T47D cells for the expression of full-length and cleaved PARP. […] T47D cells were treated with RAMBAs (VN/50-1 and VN/14-1) for 6 days and then cell lysates were electrophoresed using 10% SDS–PAGE and subjected to Western blotting. Lane 1: control; lanes 2–4: VN/50-1 (1, 5 and 10 μM); lanes 5–7: VN/14-1 (1, 5 and 10 μM). Numbers below the blot show fold increase in expression of the protein as analysed by ImageQuant densitometry analysis. Membranes were stripped and probed for β-actin to verify equal protein loading. Primary antibody (Cell Signaling Technology) 1 : 1000 in 5% milk TBST overnight at 4°C and secondary antibody (anti-rabbit) 1 : 2000 for 1 h at RT. […]

SMILES | IC50 [1] [nM] | Tumour growth inhibition compared with controls (in words) [2] | Expression of procaspase-9 (47 kDa), control = 1 ([3]; 5 μM) [fold] | Increase of active form of caspase-9 (37 kDa) compared with untreated control ([3]; 5 μM) [fold] | Expression of procaspase-9 (47 kDa), control = 1 ([3]; 10 μM) [fold] | Increase of active form of caspase-9 (37 kDa) compared with untreated control ([3]; 10 μM) [fold]
CC1=C(/C=C/C(C)=C/C=C/C(C)=C\C(=O)Nc2ccc(O)cc2)C(C)(C)CCC1n1ccnc1 (stereo not shown) [VN/69-1] | > 500 |  |  |  |  | 
CC1=C(/C=C/C(C)=C/C=C/C(C)=C/C(=O)O)C(C)(C)CCC1n1ccnc1 (stereo not shown) [VN/14-1] | > 500 | modest tumour growth inhibition | 0.4 | 1.7 | 0.7 | 1.7
CC1=C(/C=C/C(C)=C/C=C/C(C)=C/C(=O)Nc2ccc(O)cc2)C(C)(C)CCC1n1ccnc1 (stereo not shown) [VN/66-1] | > 500 |  |  |  |  | 
CC1=C(/C=C/C(C)=C/C=C/C(C)=C/C(=O)O)C(C)(C)CCC1 [ATRA, all-trans-retinoic acid, reference compound] |  | modest tumour growth inhibition | 0.4 | 1.7 | 0.3 | 1.8
